# Patent US10238622B2, “Methods of treating and preventing/reducing the likelihood of Mesial temporal lobe epilepsy (TLE)” (priority 2009, dated 2019)
# How the values were obtained:
# Li-pilocarpine SE rats [1] = assay: Lithium-pilocarpine status epilepticus induction, drugs given 1 hour after SE onset; format: in vivo, rat; details: Diazepam 4 mg/kg i.m.; for effect on seizures (status epilepticus): given 1 hour after SE onset, Atropine sulfate 10 mg/kg s.c.
# Protocol: (§1) All procedures were approved by the Institutional Animal Care and Use Committee at the University of New Mexico Health Sciences Center and were in accordance with National Institutes of Health Guide for the Care and Use of Laboratory Animals. Our protocol for the experiments here was a slight modification of a protocol published by Andre et al. (Andre et al., 2007). Twenty four hours prior to seizure induction, male Wistar rats, 2-3 months old, were administered s.c. 3 mmol/kg lithium chloride dissolved in isotonic NaCl saline Pilocarpine was then administered s.c. (25 mg/kg in isotonic NaCl). Once generalized limbic convulsions began, subcutaneous needle EEG electrodes were placed to confirm the development of status epilepticus (SE), defined as the occurrence of continuous high amplitude EEG spiking (Ormandy et al., 1989). These needles were fashioned from 25 gauge hypodermic needles (Becton Dickinson), with the hub cut off and bent at 60 degree angles so they will stay in place. One needle was inserted subcutaneously in the scalp over the parietal cortex and the other, which served as the reference electrode, over the scapula. […] Recording was then generally discontinued. Atropine sulfate (10 mg/kg s.c.) and Diazepam (4 mg/kg i.m.) were administered in order to improve survival, decrease anxiety and induce muscle relaxation. […] 12 hours after SE onset the EEG was recorded again for 5-10 min, and all rats had intermittent or organized, i.e. bursts of EEG spiking.
# pilocarpine SE rat = assay: Seizures provoked by open field exposure 6 weeks after end of chronic bumetanide treatment (FIG. 20); format: in vivo; details: 27 weeks post SE, 6 weeks after end of bumetanide treatment, within 15 min, n=6 rats per group
# Protocol: as §1, with “discontinued.” for “discontinued. Atropine sulfate (10 mg/kg s.c.) and Diazepam (4 mg/kg i.m.) were administered in order to improve survival, decrease anxiety and induce muscle relaxation.”, “spiking. […]” for “spiking.”
# post SE rats = assay: Entering-a-dark box behavior in an open field (FIG. 21); format: in vivo, rat; details: chronic bumetanide from day 16 post SE for 12 weeks, 8 rats; control rats 78%, untreated post SE rats 15%
# Protocol: as §1, with “discontinued.” for “discontinued. Atropine sulfate (10 mg/kg s.c.) and Diazepam (4 mg/kg i.m.) were administered in order to improve survival, decrease anxiety and induce muscle relaxation.”, “spiking. […]” for “spiking.”
# adult rat TLE model = details: infusion of very high doses, first 2 weeks after SE; cited from earlier work
# Li-pilocarpine SE rats [2] = assay: Spontaneous seizures with chronic bumetanide via the drinking water, 8 hour video recording (FIG. 18, 19); format: in vivo, rat
# Protocol: as §1, with “discontinued.” for “discontinued. Atropine sulfate (10 mg/kg s.c.) and Diazepam (4 mg/kg i.m.) were administered in order to improve survival, decrease anxiety and induce muscle relaxation.”, “spiking. […]” for “spiking.”
# EC L5 neurons [3] = assay: Polysynaptic burst responses to single synaptic stimulation in acute brain slices 3 weeks post SE; format: cell-based, rat
# Protocol: (§2) All experiments were performed on acute horizontal brain slices containing temporal neocortex, entorhinal cortex, subiculum and the ventral hippocampus. Control, or rats 2 or 3 weeks post-seizure, were anesthetized deeply with a mixture of ketamine and xylazine (85 and 15 mg/ml, respectively) and decapitated. The brains were removed rapidly and placed in an oxygenated (95% O2/5% CO2) ice-cold cutting solution containing (in mM): 3 KCl, 1.25 NaH2PO4, 6 MgSO4, 26 NaHCO3, 0.2 CaCl2, 10 glucose, 220 sucrose, and 0.43 ketamine. Slices (350 μm) were cut in ice-cold cutting solution with a vibratome (Dosaka DTK-1000) and transferred from there into Artificial Cerebro-Spinal Fluid (ACSF, in mM: 126 NaCl, 3 KCl, 1.25 NaH2PO4, 1 MgSO4, 26 NaHCO3, 2 CaCl2, and 10 glucose) equilibrated with 95% O2/5% CO2 at 34° C. temperature for recovery. After 1 hr ACSF was changed again, and the slices were held at room temperature until used for recording.
# (§3) Individual slices were transferred to a recording chamber mounted on a fixed-stage microscope (Zeiss Axioskop, Jena, Germany) and superfused with warmed (34° C.), oxygenated ACSF at 2 ml/min. Intracellular recordings were made from EC layer 5 neurons with borosilicate glass sharp microelectrodes (80-150 MΩ) filled with either 1 M K2SO4, or 0.5 M potassium acetate/0.5 M KCl for lower electrode resistance, or 2 M CsSO4/0.1 M KCl for improved space clamp. […] Therefore all final recordings/data for bumetanide effects on GABAergic PSP reversal potential were obtained with microelectrodes filled with 1 M K2SO4 or 2 M CsSO4/0.1 M KCl.
# (§4) Neurons were impaled in the medial entorhinal cortex just above the angular bundle, up to ¼ of cortex thickness, using a Nanostepper micropositioner (Scientific Precision Instruments, Oppenheim, Germany). Recordings were made using an Axoclamp 2B amplifier and digitized and recorded using an Axon Instruments Digidata 1322A (Molecular Devices, Union City, Calif.). Neurons with a RMP negative to −68 mV were tested with hyperpolarizing pulses to ˜−85 mV for the presence of Ih indicative of pyramidal neurons (Egorov et al., 2002; Egorov et al., 2003). […] Concentric bipolar stimulating electrodes (200 μm diameter, FHC Inc., ME, USA) were placed in layer 5 of EC, ˜150-250 μm from the recording electrode. Stimuli (70-100 μs, 100-800 nA) were controlled by a Master 8 programmable pulse generator connected to a stimulus isolation unit (A.M.P.I., Jerusalem, Israel). Full input-output relations for the EPSP and the IPSP were recorded, and stimulation intensities giving 70-90% of maximal response were used. Where indicated stimulation intensity was reduced to elicit 5-10% of maximal response.
# For these determinations, a polysynaptic burst was defined as a post-synaptic response lasting more than 150 ms at half amplitude, elicited from −75 mV<RMP<−68 mV.
# Li-pilocarpine SE rats [4] = assay: Seizures after acute bumetanide injection, video recordings, 12-17 weeks after SE (FIG. 12); format: in vivo, rat; details: bumetanide 0.2 mg/kg body weight i.p., 12-17 weeks after Li-pilocarpine SE, n=5 rats
# Protocol: All procedures were approved by the Institutional Animal Care and Use Committee at the University of New Mexico Health Sciences Center and were in accordance with National Institutes of Health Guide for the Care and Use of Laboratory Animals. Our protocol for the experiments here was a slight modification of a protocol published by Andre et al. (Andre et al., 2007). Twenty four hours prior to seizure induction, male Wistar rats, 2-3 months old, were administered s.c. 3 mmol/kg lithium chloride dissolved in isotonic NaCl saline Pilocarpine was then administered s.c. (25 mg/kg in isotonic NaCl). Once generalized limbic convulsions began, subcutaneous needle EEG electrodes were placed to confirm the development of status epilepticus (SE), defined as the occurrence of continuous high amplitude EEG spiking (Ormandy et al., 1989). These needles were fashioned from 25 gauge hypodermic needles (Becton Dickinson), with the hub cut off and bent at 60 degree angles so they will stay in place. […] 12 hours after SE onset the EEG was recorded again for 5-10 min, and all rats had intermittent or organized, i.e. bursts of EEG spiking.
# Five Li-pilocarpine SE rats were subjected to a sequence of bumetanide or vehicle injections (5% ethanol in physiological saline, i.p., dates given on bottom line), and seizures occurring in the following 8 hours were analyzed by video recordings.
# EC L5 neurons [5] = assay: GABAAergic PSP reversal potential, sharp microelectrode recording in acute brain slices 3 weeks post SE; format: cell-based, rat
# Protocol: as §2, §3, §4
compound,measurement,setting,value
CN1C(=O)CN=C(c2ccccc2)c2cc(Cl)ccc21 [Diazepam],muscle relaxation,Li-pilocarpine SE rats [1],induced muscle relaxation within one hour
same,effect on seizures (status epilepticus),Li-pilocarpine SE rats [1],did not stop seizures
CCCCNc1cc(C(=O)O)cc(S(N)(=O)=O)c1Oc1ccccc1 [bumetanide],seizures provoked by open field exposure as % of time post SE-matched control SE rats,pilocarpine SE rat,less than 15%
same,trials in which rats entered the dark box,post SE rats,67 % of trials
same,suppression of SRS by bumetanide treatment,adult rat TLE model,complete failure
same,rats in which bumetanide prevented seizures completely,"Li-pilocarpine SE rats [2]; bumetanide via the drinking water, 0.65±0.13 mg/day, two other rats had reduced seizures",4 rats
same,seizure occurrence as % of seizures in time post SE-matched control SE rats,"Li-pilocarpine SE rats [2]; three and six weeks after end of 20 weeks chronic bumetanide via drinking water, n=6 rats per group",15-22%
same,neurons with a polysynaptic response after washout of bumetanide,"EC L5 neurons [3]; 30 min washout, n=14",35.1%
same,decrease of response duration at half-maximal amplitude in bumetanide,"EC L5 neurons [3]; bumetanide 10 μM, 3 weeks post SE",36±9 % of the control response
same,neurons with a polysynaptic response in bumetanide,"EC L5 neurons [3]; bumetanide 10 μM, cells from rats 3 weeks after pilocarpine insult, n=14, 64.8% before drug",11.6%
same,response duration at half-maximal amplitude during washout of bumetanide,"EC L5 neurons [3]; recovered to, relative to control response",75±11%
same,seizures occurring in the 8 hours following injection,Li-pilocarpine SE rats [4],suppression of seizures
same,E(PSP) of an EC L5 neuron after a 20 min exposure to bumetanide (FIG. 10A),"EC L5 neurons [5]; 3 weeks after SE, CNQX 10 μM and APV 50 μM present, shifts from −29.7 mV",−60.9 mV
same,reduction of driving force at −45 mV versus control rats,"EC L5 neurons [5]; 3 weeks after SE, in the presence of bumetanide",~42%
same,driving force for Cl− at −45 mV in the presence of bumetanide,"EC L5 neurons [5]; 3 weeks after SE, ˜26 mV in control rats",~15 mV
same,absolute voltage average E(PSP) during washout of bumetanide,"EC L5 neurons [5]; 3 weeks post SE, n=5",−34.2±3.4 mV
same,average PSP reversal potential relative to RMP,"EC L5 neurons [5]; bumetanide 10 μM, EC L5 neurons 3 weeks post SE, RMP ˜−72 mV, more than +40 mV without drug",+10 mV
"CN1[C@@H]2CC[C@H]1CC(OC(=O)C(CO)c1ccccc1)C2.CN1[C@@H]2CC[C@H]1CC(OC(=O)C(CO)c1ccccc1)C2.O=S(=O)(O)O (stereo partly shown) [atropine, Atropine sulfate]",effect on seizures (status epilepticus),Li-pilocarpine SE rats [1],Nor did atropine stop seizures
picrotoxin,number of spikes in polysynaptic burst responses in picrotoxin,"EC L5 neurons [3]; picrotoxin 100 μM, 3 weeks post SE, n=8 neurons, 9.8±0.8 before drug",7.9±0.7 spikes per response
same,"burst duration in picrotoxin, result in words","EC L5 neurons [3]; picrotoxin 100 μM, FIG. 11D",did not reach statistical significance
same,reduction of action potential amplitudes in the averaged burst responses,"EC L5 neurons [3]; picrotoxin 100 μM, averages of ten responses, n=8, p=0.094",10.5±3.4%
same,decrease of the duration of polysynaptic bursts,"EC L5 neurons [3]; picrotoxin 100 μM, trend, n=8, p=0.094",10.5%
